In patent publication US5410018A, “Bombesin-related peptides” (Oregon Regional Primate Research Center, priority 1994, dated 1995):
Non-standard residues stand in square brackets, D forms with d. Residues, ends and D or L forms follow the SMILES beside them. No end group written: not given here. pGlu = O=C1CC[C@@H](C(=O)O)N1

Legend:
GRP receptor = GRP receptor (Rattus norvegicus, UniProt P52500); assay: biochemical
Description: Membranes of the GRP receptor used in the binding assay were obtained by homogenizing cultured AR42J cells (Polytron, setting 6, 15 sec) in ice-cold 50 mM Tris-HC1 (Buffer A) and centrifuging twice as 39,000 x g (10 min), with an intermediate resuspension in fresh buffer. The final pellets were resuspended in the 50 mM Tris-HCl, containing 0.1 mg/ml bacitracin, and 0.1% BSA (Buffer B), and held on ice for the receptor binding assay. […] The experiment was performed with BIM-26336, […], GRP, and NMB as competing peptides.

NMB receptor = NMB receptor (Rattus norvegicus, UniProt P24053); assay: biochemical
Chain of NMB receptor (P24053 whole entry): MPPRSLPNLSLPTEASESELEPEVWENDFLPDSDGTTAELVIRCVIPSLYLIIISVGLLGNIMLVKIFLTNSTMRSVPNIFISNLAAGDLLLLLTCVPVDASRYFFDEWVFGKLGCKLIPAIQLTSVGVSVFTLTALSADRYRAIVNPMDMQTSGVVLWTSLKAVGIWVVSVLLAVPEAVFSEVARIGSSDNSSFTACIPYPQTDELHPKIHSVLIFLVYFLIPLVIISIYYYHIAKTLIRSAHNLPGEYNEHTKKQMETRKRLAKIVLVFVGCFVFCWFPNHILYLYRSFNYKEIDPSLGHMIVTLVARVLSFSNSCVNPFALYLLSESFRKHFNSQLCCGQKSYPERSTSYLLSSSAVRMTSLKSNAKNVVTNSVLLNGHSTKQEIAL
Description: Membranes of the NMB receptor used in the binding assay were obtained by homogenizing rat olfactory bulb tissue (Polytron, setting 6, 15 sec) in ice-cold 50 mM Tris-HC1 (Buffer A) and centrifuging twice as 39,000 x g (10 min), with an intermediate resuspension in fresh buffer. The final pellets were resuspended in the 50 mM Tris-HCl, containing 0.1 mg/ml bacitracin, and 0.1% BSA (Buffer B), and held on ice for the receptor binding assay. For the assay, aliquots (0.4 ml) were incubated with 0.05 ml [^125 I] NMB (-2200 Ci/mmol, New England Nuclear) and Buffer B, with and without 0.05 ml of unlabeled competing peptides. The experiment was performed with BIM-26336, […], GRP, and NMB as competing peptides.
After a 30 min incubation (4° C.), the bound [^125 I]NMB was separated from the free by rapid filtration through GF/B filters which had been previously soaked in 0.3% polyethyleneimine. The filters were then washed three times with 5 ml aliquots of ice-cold Buffer A. Specific binding was defined as the total [125I] NMB bound minus that bound in the presence of 1 μM unlabeled NMB.

[1] = tested on: Swiss 3T3/1R mouse embryo fibroblast cells; assay: Thymidine uptake assay in Swiss 3T3 cells; type: cell-based; conditions: 24 h
Description: Swiss 3T3/1R mouse embryo fibroblast cells were plated in 24 well tissue culture plates at a density of 2×10^4 cells in 1 ml of Dublbecco's modified eagles medium (DMEM) supplemented with 40 mM glutamine (Gln) in 10% fetal bovine serum. Cells were incubated 3 or 4 days at […] in a humidified atmosphere at 95% air/5% CO2 before replacing the growth medium with DMEM/Gln and 250 μg/ml gentamicin. On the following day, 1 μCi thymidine was added to all wells, and activity was addressed by addition of test peptides alone or in the presence on 3 nM bombesin, respectively. After 24 h, the cells were rinsed with icecold isotonic saline and treated with ice-cold 5% trichloroacetic acid for 30 min. Cells were then rinsed with 95% ethanol and incubated with 0.1 N NaOH overnight at room temperature. One ml aliquots of neutralized samples were counted in a Packard Tri-Carb liquid scintillation analyzer. Test sample activity was measured in 2 independent experiments performed in quadruplicate.
This experiment was performed using 5 test samples: (1) bombesin (3 nM); (2) BIM-26336; (3) BIM-26337; (4) bombesin (3 nM) and BIM-26336; and (5) bombesin (3 nM)+BIM-26337. The results of these experiments are depicted on FIG. 6, wherein the x-axis depicts concentration of the respective SAP bombesin and the y-axis depicts disintegration per minute.

human GRP receptor = target: T1, human GRP receptor (Homo sapiens, UniProt P30550); assay: Calcium uptake functional assay in xenopus oocytes expressing the human GRP receptor (aequorin luminometry); type: cell-based; conditions: xenopus oocytes coinjected with GRP receptor RNA and aequorin
T1 construct: expressed in transfected cells; host or cells: Xenopus oocytes injected with GRP receptor RNA and aequorin
T1 sequence (P30550 whole entry): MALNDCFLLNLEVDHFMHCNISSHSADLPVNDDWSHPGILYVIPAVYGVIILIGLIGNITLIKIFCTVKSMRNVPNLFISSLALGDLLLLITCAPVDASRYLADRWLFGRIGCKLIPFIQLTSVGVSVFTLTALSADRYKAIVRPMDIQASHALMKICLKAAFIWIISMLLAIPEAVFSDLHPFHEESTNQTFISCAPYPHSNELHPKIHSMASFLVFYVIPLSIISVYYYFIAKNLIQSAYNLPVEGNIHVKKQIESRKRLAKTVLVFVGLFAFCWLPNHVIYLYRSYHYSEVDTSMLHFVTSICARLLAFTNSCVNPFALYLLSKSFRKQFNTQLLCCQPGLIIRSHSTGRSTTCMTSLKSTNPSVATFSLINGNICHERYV
Description: (§1) The ability of BIM-26336 and BIM-26337 to activate both the GRP and NMB receptors were analyzed using a calcium uptake functional assay.
Xenopus oocytes were coinjected with both GRP receptor RNA and calcium photoprotein aequorin. The ability of SAP bombesins to induce change in intracellular calcium levels within the cells can be measured luminometrically.
(§2) The ability of bombesin, NMB, SAP bombesin-14, and SAP bombesin-10 to agonize the receptor was tested.

human NMB receptor = target: T2, human NMB receptor (Homo sapiens, UniProt P28336); assay: Calcium uptake functional assay in xenopus oocytes expressing the human NMB receptor (aequorin luminometry); type: cell-based; conditions: xenopus oocytes coinjected with NMB receptor RNA and aequorin
T2 construct: expressed in transfected cells; host or cells: Xenopus oocytes injected with NMB receptor RNA and aequorin
T2 sequence (P28336 whole entry): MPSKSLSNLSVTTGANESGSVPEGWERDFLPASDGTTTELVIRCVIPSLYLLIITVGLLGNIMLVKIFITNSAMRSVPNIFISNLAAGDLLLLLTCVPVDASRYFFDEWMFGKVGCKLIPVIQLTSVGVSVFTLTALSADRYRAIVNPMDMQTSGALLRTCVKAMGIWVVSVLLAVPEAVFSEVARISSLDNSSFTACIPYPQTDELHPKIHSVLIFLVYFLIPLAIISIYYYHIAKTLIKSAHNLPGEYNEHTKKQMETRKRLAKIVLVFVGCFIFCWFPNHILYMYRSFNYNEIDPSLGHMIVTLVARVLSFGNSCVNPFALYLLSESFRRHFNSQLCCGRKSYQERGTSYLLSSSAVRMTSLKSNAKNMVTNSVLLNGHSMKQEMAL
Description: as §1
Xenopus oocytes, a frog egg naturally deprived of any receptors, were coinjected with both NMB receptor RNA and calcium photoprotein aequorin. The ability of SAP bombesins to induce change in intracellular calcium levels within the cells were measured luminometrically. See Spindel, et al., Recent Progress in Hormone Research 48:365 (1993); Corjay, et al., J. Biol. Chem. 266:18771 (1991); and Giladi et al., BioTechniques 10:744 (1991), all of which are hereby incorporated by reference.
as §2

Chain of GRP receptor (P52500 whole entry): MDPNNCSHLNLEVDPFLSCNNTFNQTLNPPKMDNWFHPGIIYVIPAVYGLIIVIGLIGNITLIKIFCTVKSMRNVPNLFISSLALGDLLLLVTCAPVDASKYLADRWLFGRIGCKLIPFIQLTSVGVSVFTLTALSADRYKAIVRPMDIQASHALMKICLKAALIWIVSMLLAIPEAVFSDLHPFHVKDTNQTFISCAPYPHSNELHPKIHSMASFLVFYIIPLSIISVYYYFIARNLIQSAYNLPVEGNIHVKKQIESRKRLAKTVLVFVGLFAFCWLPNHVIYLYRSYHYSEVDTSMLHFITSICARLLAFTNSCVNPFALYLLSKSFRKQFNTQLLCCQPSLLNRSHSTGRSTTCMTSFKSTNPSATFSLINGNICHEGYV

Row | Compound | Ki (GRP receptor) [nM] | Ki (NMB receptor) [nM] | binding selectivity between GRP and NMB receptors (GRP receptor; comparison of Ki at NMB and GRP receptors) | thymidine uptake, peptide with bombesin ([1]; in the presence of 3 nM bombesin) | thymidine uptake, peptide alone ([1]; test peptide alone) | potency at the GRP receptor (intracellular calcium) (human GRP receptor) | potency at the NMB receptor (intracellular calcium, relative to NMB) (human NMB receptor)
1 | GNQWARGHFM-NH2 [BIM-26336, Gly-Asn-Gln-Trp-Ala-Arg-Gly-His-Phe-Met-NH2] | 6.6 | 15.1 |  |  |  |  | 
2 | CSCC[C@H](NC(=O)[C@H](Cc1ccccc1)NC(=O)[C@H](Cc1c[nH]cn1)NC(=O)CNC(=O)[C@H](CCCNC(=N)N)NC(=O)[C@H](C)NC(=O)[C@H](Cc1c[nH]c2ccccc12)NC(=O)[C@H](CCC(N)=O)NC(=O)[C@H](CC(N)=O)NC(=O)CNC(=O)[C@H](CC(C)C)NC(=O)[C@H](CO)NC(=O)[C@H](CCC(N)=O)NC(=O)[C@@H]1CCC(=O)N1)C(N)=O [BIM-26337, H-pGlu-Gln-Ser-Leu-Gly-Asn-Gln-Trp-Ala-Arg-Gly-His-Phe-Met-NH2] ([pGlu]QSLGNQWARGHFM-NH2) | 6.4 | 610 | more selective binding of GRP than NMB receptors | substantially enhanced | induce thymidine uptake | significantly greater potency than SAP bombesin-10 | approximately two log units less than that of NMB
